According to ChEMBL document CHEMBL3286297, “Design, synthesis and antiproliferative activity of a novel class of indole-2-carboxylate derivatives” (Eur J Med Chem, 2014):
pIC50: −log10 of the molar value. Activity calls are given as the source filed them. The rule behind the calls is not given here.

Key:
Type in all cases: functional, cell-based
[1] = tested on: A549; experiment: Antiproliferative against human A549 cells after 48 hrs by MTT assay; settings: A549, 48 h
[2] = tested on: A549; experiment: Induction of reactive oxygen species generation in human A549 cells at 200 uM after 48 hrs by […]
[3] = tested on: MCF7; experiment: Antiproliferative against human MCF7 cells after 48 hrs by MTT assay; settings: MCF7, 48 h
[4] = tested on: HepG2; experiment: Antiproliferative against human HepG2 cells after 48 hrs by MTT assay; settings: HepG2, 48 h
[5] = tested on: A549; experiment: Induction of apoptosis in human A549 cells assessed as […] cleavage after 48 hrs by Western blot analysis
[6] = tested on: A549; experiment: Cell cycle arrest in human A549 cells assessed as accumulation at G2/M phase after 48 hrs by flow cytometric analysis
[7] = tested on: A549; experiment: Cell cycle arrest in human A549 cells assessed as accumulation at G1 phase after 48 hrs by flow cytometric analysis
[8] = tested on: A549; experiment: Induction of reactive oxygen species generation in human A549 cells after 48 hrs by […]

pIC50 [1]	pIC50 [3]	pIC50 [4]	SMILES	Activity [2]	Activity [5]	Activity [6]	Activity [7]	Activity [8]
3.12	4.59	4.34	O=C(O)c1cc(C(=O)O)c2c(n1)C(=O)C(=O)c1cc(C(=O)O)[nH]c1-2 [PYRROLOQUINOLINE QUINONE]	Active	–	–	–	–
< 3.70	< 3.70	< 3.70	COC(=O)c1cc2c(OCc3ccc(F)cc3)cc(N)cc2[nH]1	–	–	–	–	–
< 3.70	< 3.70	< 3.70	COC(=O)c1cc2ccc(N)cc2[nH]1	–	–	–	–	–
4.62	5.20	5.42	COC(=O)c1cc2c(OC(C)C)cc(OC)cc2[nH]1	–	Dose-dependent effect	Dose-dependent effect	Dose-dependent effect	Dose-dependent effect
< 3.70	< 3.70	< 3.70	CCCOc1cccc2[nH]c(C(=O)OC)cc12	–	–	–	–	–
< 3.70	< 3.70	< 3.70	COC(=O)c1cc2ccc(N(C)C)cc2[nH]1	–	–	–	–	–
< 3.70	< 3.70	< 3.70	COC(=O)c1cc2c(OCC3CCCCC3)cc(NC(C)=O)cc2[nH]1	–	–	–	–	–
4.60	4.73	< 3.70	CCCOc1cc(OC)cc2[nH]c(C(=O)OC)cc12	–	–	–	–	–
4.94	4.01	4.16	COC(=O)c1cc2c(OCC(C)C)cc(N)cc2[nH]1	–	–	–	–	–
4.39	4.38	< 3.70	CCCCOc1cc(OC)cc2[nH]c(C(=O)OC)cc12	–	–	–	–	–
< 3.70	< 3.70	< 3.70	COC(=O)c1cc2c(O)cc(N)cc2[nH]1	–	–	–	–	–
< 3.70	< 3.70	< 3.70	COC(=O)c1cc2c(OCc3ccccc3)cc(N)cc2[nH]1	–	–	–	–	–
3.62	4.09	4.86	COc1cc([C@@H]2c3cc4c(cc3[C@@H](O[C@@H]3O[C@@H]5CO[C@@H](C)O[C@H]5[C@H](O)[C@H]3O)[C@H]3COC(=O)[C@H]23)OCO4)cc(OC)c1O [ETOPOSIDE]	–	–	–	–	–
< 3.70	< 3.70	< 3.70	COC(=O)c1cc2c(OCC(C)C)cc(NC(C)=O)cc2[nH]1	–	–	–	–	–
< 3.70	< 3.70	< 3.70	C=CCOc1cc(N)cc2[nH]c(C(=O)OC)cc12	–	–	–	–	–
3.97	4.09	< 3.70	COC(=O)c1cc2c(OCC3CCCCC3)cc(OC)cc2[nH]1	–	–	–	–	–
4.06	< 3.70	< 3.70	CCCCOc1cccc2[nH]c(C(=O)OC)cc12	–	–	–	–	–
4.19	< 3.70	< 3.70	CCOc1ccc2[nH]c(C(=O)OC)cc2c1OCC1CCCCC1	–	–	–	–	–
4.51	4.05	< 3.70	COC(=O)c1cc2c(OCC3CCCCC3)cccc2[nH]1	–	–	–	–	–
< 3.70	< 3.70	4.20	CCCOc1c(OCC)ccc2[nH]c(C(=O)OC)cc12	–	–	–	–	–
4.29	< 3.70	< 3.70	COC(=O)c1cc2c(OCC(C)C)cccc2[nH]1	–	–	–	–	–
< 3.70	< 3.70	< 3.70	COC(=O)c1cc2c(OC)cccc2[nH]1	–	–	–	–	–
5.40	5.42	4.84	COC(=O)c1cc2c(OCC3CCCCC3)cc(N)cc2[nH]1	–	Dose-dependent effect	Dose-dependent effect	Dose-dependent effect	Dose-dependent effect
5.82	7.59	7.17	CC(=O)O[C@H]1C(=O)[C@@]2(C)[C@H]([C@H](OC(=O)c3ccccc3)[C@]3(O)C[C@H](OC(=O)[C@H](O)[C@@H](NC(=O)c4ccccc4)c4ccccc4)C(C)=C1C3(C)C)[C@]1(OC(C)=O)CO[C@@H]1C[C@@H]2O [PACLITAXEL]	–	–	–	–	–
< 3.70	< 3.70	< 3.70	COC(=O)c1cc2c(OC(C)C)cccc2[nH]1	–	–	–	–	–
3.99	< 3.70	3.78	CCCCOc1c(OCC)ccc2[nH]c(C(=O)OC)cc12	–	–	–	–	–
